Tests used:
[1] = test system: Escherichia coli IFO 3972; experiment: Viable Count of Escherichia coli IFO 3972 in Erythritol Solution; assay type: cell-based
Experimental: (§1) Erythritol solutions of respective concentrations in the range of from 30 to 60% were prepared. To these were inoculated Staphylococcus aureus IFO 13276, Bacillus subtilis IFO 3134, and Escherichia coli IFO 3972 as bacteria, Candida albicans IFO 1549 and Saccharomyces cerevisiae ATCC 9763 as yeasts, Aspergillus niger IFO 6342, Aspergillus flavus IFO 6343, and Penicillium funiculosum IFO 6345 as fungi, respectively, in a population (concentration) of 10,000 cells/mL or more. After the inoculation, the solutions were stored at 30, 37, 45, 50, or 60° C., respectively, for 56 days and the number of viable cell was determined daily. The determination of the number of viable cell was performed by a method of coating 0.1 mL of appropriately diluted sample cultivation on an agar plate and cultivating and counting the number of viable cell (the number of colony) that grew after the cultivation.

[2] = test system: Bacillus subtilis IFO 3134; experiment: Viable Count of Bacillus subtilis IFO 3134 in Erythritol Solution; assay type: cell-based
Experimental: as §1

OC[C@@H](O)[C@@H](O)CO [Erythritol Solution, erythritol]
300 cells/mL: The Number of Viable Cell ([2]; 30° C., 40% w/w, Day 3)
11100 cells/mL: The Number of Viable Cell ([1]; 37° C., 40% w/w, Day 3)
140 cells/mL: The Number of Viable Cell ([1]; 37° C., 40% w/w, Day 7)
110 cells/mL: The Number of Viable Cell ([1]; 30° C., 30% w/w, Day 28) | The Number of Viable Cell ([2]; 30° C., 30% w/w, Day 14) | The Number of Viable Cell ([2]; 45° C., 30% w/w, Day 7)
8270 cells/mL: The Number of Viable Cell ([1]; 37° C., 30% w/w, Day 7)
20 cells/mL: The Number of Viable Cell ([2]; 30° C., 40% w/w, Day 14)
750 cells/mL: The Number of Viable Cell ([2]; 30° C., 30% w/w, Day 28)
420 cells/mL: The Number of Viable Cell ([1]; 30° C., 40% w/w, Day 14)
2820 cells/mL: The Number of Viable Cell ([1]; 30° C., 40% w/w, Day 7)
1000 cells/mL: The Number of Viable Cell ([2]; 37° C., 30% w/w, Day 28)
170 cells/mL: The Number of Viable Cell ([2]; 37° C., 30% w/w, Day 3)
30 cells/mL: The Number of Viable Cell ([2]; 45° C., 50% w/w, Day 3)
450 cells/mL: The Number of Viable Cell ([1]; 45° C., 30% w/w, Day 3)
10000 or more cells/mL: The Number of Viable Cell ([1]; 30° C., 30% w/w, Day 0) | The Number of Viable Cell ([1]; 30° C., 30% w/w, Day 3) | The Number of Viable Cell ([1]; 30° C., 30% w/w, Day 7) | The Number of Viable Cell ([1]; 30° C., 40% w/w, Day 0) | The Number of Viable Cell ([1]; 37° C., 30% w/w, Day 0) | The Number of Viable Cell ([1]; 37° C., 30% w/w, Day 3) | The Number of Viable Cell ([1]; 37° C., 40% w/w, Day 0) | The Number of Viable Cell ([1]; 45° C., 30% w/w, Day 0) | The Number of Viable Cell ([1]; 45° C., 40% w/w, Day 0) | The Number of Viable Cell ([1]; 45° C., 50% w/w, Day 0) | The Number of Viable Cell ([1]; 50° C., 30% w/w, Day 0) | The Number of Viable Cell ([1]; 50° C., 40% w/w, Day 0) | The Number of Viable Cell ([1]; 50° C., 50% w/w, Day 0) | The Number of Viable Cell ([2]; 30° C., 30% w/w, Day 0) | The Number of Viable Cell ([2]; 30° C., 40% w/w, Day 0) | The Number of Viable Cell ([2]; 37° C., 30% w/w, Day 0) | The Number of Viable Cell ([2]; 37° C., 40% w/w, Day 0) | The Number of Viable Cell ([2]; 45° C., 30% w/w, Day 0) | The Number of Viable Cell ([2]; 45° C., 50% w/w, Day 0) | The Number of Viable Cell ([2]; 50° C., 30% w/w, Day 0) | The Number of Viable Cell ([2]; 50° C., 40% w/w, Day 0) | The Number of Viable Cell ([2]; 50° C., 50% w/w, Day 0)
10400 cells/mL: The Number of Viable Cell ([1]; 30° C., 40% w/w, Day 3)
11500 cells/mL: The Number of Viable Cell ([2]; 37° C., 30% w/w, Day 7)
2980 cells/mL: The Number of Viable Cell ([2]; 30° C., 30% w/w, Day 3)
3 days: time after which microbes died ([1]; temperature of 50° C. or more) | time after which microbes died ([2]; temperature of 50° C. or more)
prevented from growing: growth of the microbes ([1]; temperature of 50° C. or more) | growth of the microbes ([2]; temperature of 50° C. or more)
440 cells/mL: The Number of Viable Cell ([2]; 30° C., 30% w/w, Day 7)
0 cells/mL: The Number of Viable Cell ([1]; 30° C., 30% w/w, Day 56) | The Number of Viable Cell ([1]; 30° C., 40% w/w, Day 28) | The Number of Viable Cell ([1]; 30° C., 40% w/w, Day 56) | The Number of Viable Cell ([1]; 37° C., 30% w/w, Day 14) | The Number of Viable Cell ([1]; 37° C., 30% w/w, Day 28) | The Number of Viable Cell ([1]; 37° C., 30% w/w, Day 56) | The Number of Viable Cell ([1]; 37° C., 40% w/w, Day 14) | The Number of Viable Cell ([1]; 37° C., 40% w/w, Day 28) | The Number of Viable Cell ([1]; 37° C., 40% w/w, Day 56) | The Number of Viable Cell ([1]; 45° C., 30% w/w, Day 7) | The Number of Viable Cell ([1]; 45° C., 30% w/w, Day 14) | The Number of Viable Cell ([1]; 45° C., 30% w/w, Day 28) | The Number of Viable Cell ([1]; 45° C., 30% w/w, Day 56) | The Number of Viable Cell ([1]; 45° C., 40% w/w, Day 3) | The Number of Viable Cell ([1]; 45° C., 40% w/w, Day 7) | The Number of Viable Cell ([1]; 45° C., 40% w/w, Day 14) | The Number of Viable Cell ([1]; 45° C., 40% w/w, Day 28) | The Number of Viable Cell ([1]; 45° C., 40% w/w, Day 56) | The Number of Viable Cell ([1]; 45° C., 50% w/w, Day 3) | The Number of Viable Cell ([1]; 45° C., 50% w/w, Day 7) | The Number of Viable Cell ([1]; 45° C., 50% w/w, Day 14) | The Number of Viable Cell ([1]; 45° C., 50% w/w, Day 28) | The Number of Viable Cell ([1]; 45° C., 50% w/w, Day 56) | The Number of Viable Cell ([1]; 50° C., 30% w/w, Day 3) | The Number of Viable Cell ([1]; 50° C., 30% w/w, Day 7) | The Number of Viable Cell ([1]; 50° C., 30% w/w, Day 14) | The Number of Viable Cell ([1]; 50° C., 30% w/w, Day 28) | The Number of Viable Cell ([1]; 50° C., 30% w/w, Day 56) | The Number of Viable Cell ([1]; 50° C., 40% w/w, Day 3) | The Number of Viable Cell ([1]; 50° C., 40% w/w, Day 7) | The Number of Viable Cell ([1]; 50° C., 40% w/w, Day 14) | The Number of Viable Cell ([1]; 50° C., 40% w/w, Day 28) | The Number of Viable Cell ([1]; 50° C., 40% w/w, Day 56) | The Number of Viable Cell ([1]; 50° C., 50% w/w, Day 3) | The Number of Viable Cell ([1]; 50° C., 50% w/w, Day 7) | The Number of Viable Cell ([1]; 50° C., 50% w/w, Day 14) | The Number of Viable Cell ([1]; 50° C., 50% w/w, Day 28) | The Number of Viable Cell ([1]; 50° C., 50% w/w, Day 56) | The Number of Viable Cell ([2]; 30° C., 30% w/w, Day 56) | The Number of Viable Cell ([2]; 30° C., 40% w/w, Day 7) | The Number of Viable Cell ([2]; 30° C., 40% w/w, Day 28) | The Number of Viable Cell ([2]; 30° C., 40% w/w, Day 56) | The Number of Viable Cell ([2]; 37° C., 30% w/w, Day 56) | The Number of Viable Cell ([2]; 37° C., 40% w/w, Day 3) | The Number of Viable Cell ([2]; 37° C., 40% w/w, Day 7) | The Number of Viable Cell ([2]; 37° C., 40% w/w, Day 14) | The Number of Viable Cell ([2]; 37° C., 40% w/w, Day 28) | The Number of Viable Cell ([2]; 37° C., 40% w/w, Day 56) | The Number of Viable Cell ([2]; 45° C., 30% w/w, Day 14) | The Number of Viable Cell ([2]; 45° C., 30% w/w, Day 28) | The Number of Viable Cell ([2]; 45° C., 30% w/w, Day 56) | The Number of Viable Cell ([2]; 45° C., 50% w/w, Day 7) | The Number of Viable Cell ([2]; 45° C., 50% w/w, Day 14) | The Number of Viable Cell ([2]; 45° C., 50% w/w, Day 28) | The Number of Viable Cell ([2]; 45° C., 50% w/w, Day 56) | The Number of Viable Cell ([2]; 50° C., 30% w/w, Day 3) | The Number of Viable Cell ([2]; 50° C., 30% w/w, Day 7) | The Number of Viable Cell ([2]; 50° C., 30% w/w, Day 14) | The Number of Viable Cell ([2]; 50° C., 30% w/w, Day 28) | The Number of Viable Cell ([2]; 50° C., 30% w/w, Day 56) | The Number of Viable Cell ([2]; 50° C., 40% w/w, Day 3) | The Number of Viable Cell ([2]; 50° C., 40% w/w, Day 7) | The Number of Viable Cell ([2]; 50° C., 40% w/w, Day 14) | The Number of Viable Cell ([2]; 50° C., 40% w/w, Day 28) | The Number of Viable Cell ([2]; 50° C., 40% w/w, Day 56) | The Number of Viable Cell ([2]; 50° C., 50% w/w, Day 3) | The Number of Viable Cell ([2]; 50° C., 50% w/w, Day 7) | The Number of Viable Cell ([2]; 50° C., 50% w/w, Day 14) | The Number of Viable Cell ([2]; 50° C., 50% w/w, Day 28) | The Number of Viable Cell ([2]; 50° C., 50% w/w, Day 56)
7780 cells/mL: The Number of Viable Cell ([1]; 30° C., 30% w/w, Day 14)
